Experimental data published in US12448389B2, “BRM targeting compounds and associated methods of use” (Prelude Therapeutics Incorporated, priority 2020, dated 2025).

Key:
[1] = test system: SMARCA4 mutated cancer cells; conditions: SMARCA2/4 bromodomain inhibitor; Vangamudi et al. Cancer Res 2015; cited from earlier work
[2] = target: T1, SMARCA2 (Homo sapiens, UniProt P51531); assay: SMARCA2 protein degradation in NCIH520 cells by In Cell Western (ICW); format: cell-based; conditions: highest concentration 1 μM; for DC50: H520 cells, overnight incubation (maximum 18 hours), read-out: DC50 (SM2_H520): SMARCA2 degradation potency; for Dmax: NCI-H520, overnight incubation (maximum 18 hours), read-out: Dmax % (SM2_H520): maximum SMARCA2 degradation within the concentrations tested
T1 construct: endogenous in cells; host or cells: NCI-H520 (given as NCIH520 / NCIH1520 / H520)
Protocol: (§1) Compounds were dissolved in DMSO to make 10 mM stock and 3-fold series dilutions were further conducted keeping the highest concentration 10 μM. NCIH11693 and NCIH1520 cells were maintained in PRMI 1640 medium (Corning Cellgro, Catalog #: 10-040-CV) supplemented with 10% v/v FBS (GE Healthcare, Catalog #: SH30910.03) by splitting 1:3 twice a week.
(§2) SMACRA2 and SMARCA4 Protein Degradation DC50 Values in NCIH1693 and NCIH520 Cells by in Cell Western (ICW) Analysis.
(§3) Cells were trypsinized and 30 thousand cells/well were seeded into 384-well plates and were allowed to grow for 1-2 hours at 37° C. Eight-point, 3-fold serial dilutions of compounds from 0.5 mM stocks were added to the cells (using digital Dispenser D300-Tecan, keeping highest concentration 1 μM and normalizing with DMSO at the highest dispensed volume). Plates were incubated at 37° C. for overnight (maximum 18 hours). Cells incubated with DMSO was used as a vehicle control.
(§4) To perform In Cell Western, medium was removed from all the wells leaving cells attached to the surface. After removing the medium, cells were fixed within the plates with 40 μL of 4% formaldehyde by incubating at room temperature for 30 minutes, and then permeabilized with wash buffer (1×PBS with 0.1% Triton X-100) by washing the plate 5 times with 50 μL/well. Before labeling with primary antibodies, cells were blocked with 30 μL/well of blocking buffer (Licor Odyssey blocking buffer PBS #927-40000) for 30 minutes at room temperature. To measure SMARCA2 or SMARCA4 proteins, cells were labeled with 20 μL/well of anti SMARCA2 or SMACRA4 antibodies (Cell Signaling BRM #11966S 1:800, Cell Signaling BRG #49360S 1:800) diluted in Li-Cor Odyssey blocking buffer-PBS #927-40000, followed by overnight incubation at 4° C.
(§5) The next day, plates were washed 5×5 minutes with 50 μL/well of washing buffer to remove all the excess primary antibody and then 20 μL from a mixture of secondary antibody and fluorescent DNA specific dye (Goat anti rabbit 1:500 IRDye-800CW #92632211, and DRAQ5™ 1:2000-#ab108410) was added to each well. Plates were incubated for 1 hour at room temperature with gentle rocking. Cells were washed 5 times with 50 μL/well wash buffer, followed by one last wash with DI water, followed by 10 mins drying at 37° C. oven before scanning. Plates were scanned using Li-Cor Odyssey CLx imaging system to acquire integrated intensities at 700 nm and 800 nm. SMARCA signals were normalized to total cell count and then these normalized values were used to calculate the percent degradation relative to DMSO control and maximum inhibition. DC50s were calculated by using the GraphPad Prism4 program based on sigmoidal dose response equation ([Inhibitor] vs. normalized response-Variable slope).
(§6) In Table 36, the DC50/Dmax% (SM2_H520) refers to SMARCA2 degradation potency/maximum SMARCA2 degradation within the concentrations in H520 cells and DC50/Dmax% (SM4_H520) refers to SMARCA4 degradation potency/maximum SMARCA4 degradation within the concentrations tested in H520 cells.

[3] = target: T2, SMARCA4 (Homo sapiens, UniProt P51532); assay: SMARCA4 protein degradation in NCIH520 cells by In Cell Western (ICW); format: cell-based; conditions: highest concentration 1 μM; for DC50: H520 cells, overnight incubation (maximum 18 hours), read-out: DC50 (SM4_H520): SMARCA4 degradation potency; for Dmax: NCI-H520, overnight incubation (maximum 18 hours), read-out: Dmax % (SM4_H520): maximum SMARCA4 degradation within the concentrations tested
T2 construct: endogenous in cells; host or cells: NCI-H520 (given as NCIH520 / NCIH1520 / H520)
Protocol: as §1, §2, §3, §4, §5, §6

T1 sequence (P51531 whole entry): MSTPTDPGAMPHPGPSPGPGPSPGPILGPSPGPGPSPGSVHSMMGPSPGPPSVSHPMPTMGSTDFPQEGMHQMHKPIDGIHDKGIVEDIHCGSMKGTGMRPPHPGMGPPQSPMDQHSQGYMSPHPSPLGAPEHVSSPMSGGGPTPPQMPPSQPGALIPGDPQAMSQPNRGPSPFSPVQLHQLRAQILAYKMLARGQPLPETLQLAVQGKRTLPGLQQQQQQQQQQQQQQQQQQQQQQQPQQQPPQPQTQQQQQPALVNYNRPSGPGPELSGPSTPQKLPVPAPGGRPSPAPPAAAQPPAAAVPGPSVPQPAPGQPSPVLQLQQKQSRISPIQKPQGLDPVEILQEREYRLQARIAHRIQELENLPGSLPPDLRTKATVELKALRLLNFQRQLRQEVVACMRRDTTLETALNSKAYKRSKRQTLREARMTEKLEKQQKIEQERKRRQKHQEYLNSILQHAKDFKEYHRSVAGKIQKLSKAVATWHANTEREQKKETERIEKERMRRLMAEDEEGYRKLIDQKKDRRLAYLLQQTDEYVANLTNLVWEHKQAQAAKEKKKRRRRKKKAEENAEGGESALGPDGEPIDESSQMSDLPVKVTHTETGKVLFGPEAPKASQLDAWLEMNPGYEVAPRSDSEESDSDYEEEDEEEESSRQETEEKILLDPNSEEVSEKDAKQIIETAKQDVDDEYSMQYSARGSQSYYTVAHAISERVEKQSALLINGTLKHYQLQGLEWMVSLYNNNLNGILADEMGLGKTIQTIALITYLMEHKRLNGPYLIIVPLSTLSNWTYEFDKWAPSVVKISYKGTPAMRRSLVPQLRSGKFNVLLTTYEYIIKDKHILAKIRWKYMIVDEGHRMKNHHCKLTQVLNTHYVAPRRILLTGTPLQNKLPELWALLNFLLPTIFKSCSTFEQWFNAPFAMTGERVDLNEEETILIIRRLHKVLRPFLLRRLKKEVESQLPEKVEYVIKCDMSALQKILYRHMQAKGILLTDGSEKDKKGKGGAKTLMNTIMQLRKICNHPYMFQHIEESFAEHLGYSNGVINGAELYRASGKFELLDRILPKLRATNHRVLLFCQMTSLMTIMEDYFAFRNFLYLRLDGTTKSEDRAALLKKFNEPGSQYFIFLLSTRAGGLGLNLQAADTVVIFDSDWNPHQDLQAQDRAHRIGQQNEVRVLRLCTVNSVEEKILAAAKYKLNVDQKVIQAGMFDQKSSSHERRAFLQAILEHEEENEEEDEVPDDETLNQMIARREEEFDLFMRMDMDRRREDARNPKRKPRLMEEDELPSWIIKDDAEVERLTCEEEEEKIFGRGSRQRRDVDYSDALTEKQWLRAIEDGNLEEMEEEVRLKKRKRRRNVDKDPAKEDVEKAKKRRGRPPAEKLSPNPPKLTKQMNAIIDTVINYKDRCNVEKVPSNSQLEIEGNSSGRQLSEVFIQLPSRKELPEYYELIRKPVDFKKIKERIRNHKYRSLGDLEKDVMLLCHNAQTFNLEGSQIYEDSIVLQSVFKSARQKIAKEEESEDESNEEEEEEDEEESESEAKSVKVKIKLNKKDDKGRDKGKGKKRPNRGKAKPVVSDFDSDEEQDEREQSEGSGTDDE
T2 sequence (P51532 whole entry): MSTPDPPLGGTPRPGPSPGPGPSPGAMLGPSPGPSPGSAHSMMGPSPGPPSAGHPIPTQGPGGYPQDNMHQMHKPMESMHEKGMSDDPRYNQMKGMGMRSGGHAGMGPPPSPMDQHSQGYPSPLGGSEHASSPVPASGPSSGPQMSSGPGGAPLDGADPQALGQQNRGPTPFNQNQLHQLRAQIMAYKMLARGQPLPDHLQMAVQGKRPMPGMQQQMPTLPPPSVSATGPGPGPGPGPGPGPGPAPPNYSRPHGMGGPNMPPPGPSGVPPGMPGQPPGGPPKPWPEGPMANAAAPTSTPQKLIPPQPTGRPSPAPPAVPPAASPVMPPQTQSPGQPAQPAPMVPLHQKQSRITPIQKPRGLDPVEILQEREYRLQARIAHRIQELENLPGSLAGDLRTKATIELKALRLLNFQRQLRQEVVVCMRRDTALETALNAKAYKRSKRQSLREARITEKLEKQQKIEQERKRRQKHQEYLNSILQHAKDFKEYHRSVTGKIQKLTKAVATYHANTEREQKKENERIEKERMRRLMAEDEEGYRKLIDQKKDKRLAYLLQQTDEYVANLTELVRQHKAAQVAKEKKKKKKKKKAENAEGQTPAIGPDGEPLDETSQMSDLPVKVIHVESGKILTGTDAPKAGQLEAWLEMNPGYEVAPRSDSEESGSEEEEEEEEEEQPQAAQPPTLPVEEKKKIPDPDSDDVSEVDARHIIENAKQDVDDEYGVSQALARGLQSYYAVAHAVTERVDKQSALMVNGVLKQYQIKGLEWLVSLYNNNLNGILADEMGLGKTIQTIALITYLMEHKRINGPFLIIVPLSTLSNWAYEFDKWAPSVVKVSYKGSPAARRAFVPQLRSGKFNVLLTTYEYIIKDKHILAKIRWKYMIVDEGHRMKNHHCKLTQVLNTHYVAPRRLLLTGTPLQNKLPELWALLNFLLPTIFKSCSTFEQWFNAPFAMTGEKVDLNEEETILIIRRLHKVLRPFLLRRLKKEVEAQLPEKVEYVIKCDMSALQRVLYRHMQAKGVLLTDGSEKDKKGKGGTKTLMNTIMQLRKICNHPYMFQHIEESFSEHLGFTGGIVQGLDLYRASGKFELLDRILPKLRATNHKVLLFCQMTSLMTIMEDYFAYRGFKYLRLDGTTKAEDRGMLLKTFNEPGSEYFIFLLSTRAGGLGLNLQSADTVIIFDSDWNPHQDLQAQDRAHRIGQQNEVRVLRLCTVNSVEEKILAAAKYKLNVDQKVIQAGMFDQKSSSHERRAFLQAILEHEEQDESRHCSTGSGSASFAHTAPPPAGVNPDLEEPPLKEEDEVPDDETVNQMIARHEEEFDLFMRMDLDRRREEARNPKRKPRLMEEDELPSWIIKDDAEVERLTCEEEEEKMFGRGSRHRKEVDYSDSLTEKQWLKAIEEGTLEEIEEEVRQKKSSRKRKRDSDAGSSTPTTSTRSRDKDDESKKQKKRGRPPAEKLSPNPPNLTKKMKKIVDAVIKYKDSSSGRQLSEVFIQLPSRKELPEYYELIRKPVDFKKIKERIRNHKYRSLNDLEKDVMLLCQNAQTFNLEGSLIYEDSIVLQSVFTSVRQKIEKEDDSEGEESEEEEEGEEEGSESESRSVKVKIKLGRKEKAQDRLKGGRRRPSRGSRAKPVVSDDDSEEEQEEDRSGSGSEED

| SMILES | DC50 [2] [nM] | Dmax [2] [%] | DC50 [3] [nM] | Dmax [3] [%] | effects on cell proliferation inhibition [1] |
| --- | --- | --- | --- | --- | --- |
| O=C(/C=C/N1C[C@H]2C[C@@H]1CN2c1ccccn1)c1ccccc1O [PFI-3] |  |  |  |  | none to minor effects |
| O=C1CCC(N2Cc3cc(CN4CCC(c5cnc(N6CCN7c8cc(-c9ccccc9O)nnc8NC[C@H]7C6)nc5)CC4)ccc3C2=O)C(=O)N1 (stereo partly drawn) [Example 10, 3-(5-((4-(2-((S)-2-(2-hydroxyphenyl)-5,6,6a,7,9,10-hexahydro-8H-pyrazino[1′,2′:4,5]pyrazino[2,3-c]pyridazin-8-yl)pyrimidin-5-yl)piperidin-1-yl)methyl)-1-oxoisoindolin-2-yl)piperidine-2,6-dione] | < 100 | > 75 | < 100 | 50 to 75 |  |
| O=C1CCC(N2Cc3cc(CCN4CCC(c5cnc(N6CCN7c8cc(-c9ccccc9O)nnc8NC[C@@H]7C6)nc5)CC4)ccc3C2=O)C(=O)N1 (stereo partly drawn) [Example 4, 3-(5-(2-(4-(2-((R)-2-(2-hydroxyphenyl)-5,6,6a,7,9,10-hexahydro-8H-pyrazino[1′,2′:4,5]pyrazino[2,3-c]pyridazin-8-yl)pyrimidin-5-yl)piperidin-1-yl)ethyl)-1-oxoisoindolin-2-yl)piperidine-2,6-dione] | < 100 | > 75 | < 100 | > 75 |  |
| O=C1CCC(N2Cc3cc(CCCN4CCC(CCc5cnc(N6CCN7c8cc(-c9ccccc9O)nnc8NC[C@@H]7C6)nc5)CC4)ccc3C2=O)C(=O)N1 (stereo partly drawn) [Example 3, 3-(5-(3-(4-(2-(2-((R)-2-(2-hydroxyphenyl)-5,6,6a,7,9,10-hexahydro-8H-pyrazino[1′,2′:4,5]pyrazino[2,3-c]pyridazin-8-yl)pyrimidin-5-yl)ethyl)piperidin-1-yl)propyl)-1-oxoisoindolin-2-yl)piperidine-2,6-dione] | < 100 | > 75 | < 100 | > 75 |  |
| O=C1CCC(N2Cc3cc(CCN4CCC(OCCN5CCC(N6CCN7c8cc(-c9ccccc9O)nnc8NC[C@H]7C6)CC5)CC4)ccc3C2=O)C(=O)N1 (stereo partly drawn) [Example 8, 3-(5-(2-(4-(2-(4-((S)-2-(2-hydroxyphenyl)-5,6,6a,7,9,10-hexahydro-8H-pyrazino[1′,2′:4,5]pyrazino[2,3-c]pyridazin-8-yl)piperidin-1-yl)ethoxy)piperidin-1-yl)ethyl)-1-oxoisoindolin-2-yl)piperidine-2,6-dione] | < 100 | > 75 | < 100 | > 75 |  |
| O=C1CCC(N2Cc3cc(CCN4CCC(/C=C/c5cnc(N6CCN7c8cc(-c9ccccc9O)nnc8NC[C@H]7C6)nc5)CC4)ccc3C2=O)C(=O)N1 (stereo partly drawn) [Example 7, 3-(5-(2-(4-((E)-2-(2-((S)-2-(2-hydroxyphenyl)-5,6,6a,7,9,10-hexahydro-8H-pyrazino[1′,2′:4,5]pyrazino[2,3-c]pyridazin-8-yl)pyrimidin-5-yl)vinyl)piperidin-1-yl)ethyl)-1-oxoisoindolin-2-yl)piperidine-2,6-dione] | < 100 | > 75 | < 100 | > 75 |  |
| O=C1CCC(N2C(=O)c3ccc(N4CCC(OCCN5CCC(N6CCN7c8cc(-c9ccccc9O)nnc8NC[C@H]7C6)CC5)CC4)cc3C2=O)C(=O)N1 (stereo partly drawn) [Example 16, 2-(2,6-Dioxopiperidin-3-yl)-5-(4-(2-(4-((S)-2-(2-hydroxyphenyl)-5,6,6a,7,9,10-hexahydro-8H-pyrazino[1′,2′:4,5]pyrazino[2,3-c]pyridazin-8-yl)piperidin-1-yl)ethoxy)piperidin-1-yl) isoindoline-1,3-dione] | < 100 | > 75 | < 100 | 50 to 75 |  |

Continued, in another order:

| DC50 [2] [nM] | Dmax [2] [%] | DC50 [3] [nM] | Dmax [3] [%] | SMILES | effects on cell proliferation inhibition [1] |
| --- | --- | --- | --- | --- | --- |
| < 100 | > 75 | < 100 | > 75 | O=C1CCC(n2c3ccc(CCCN4CCN(CCN5CCN6c7cc(-c8ccccc8O)nnc7NC[C@H]6C5)CC4)cc3c3cccnc32)C(=O)N1 (stereo partly drawn) [Example 22, 3-(6-(3-(4-(2-((S)-2-(2-hydroxyphenyl)-5,6,6a,7,9,10-hexahydro-8H-pyrazino [1′,2′:4,5]pyrazino[2,3-c]pyridazin-8-yl)ethyl)piperazin-1-yl)propyl)-9H-pyrido[2,3-b]indol-9-yl)piperidine-2,6-dione] |  |
| < 100 | > 75 | < 100 | > 75 | O=C1CCC(n2c3ccc(CCCN4CCC(c5cnc(N6CCN7c8cc(-c9ccccc9O)nnc8NC[C@@H]7C6)nc5)CC4)cc3c3cccnc32)C(=O)N1 (stereo partly drawn) [Example 18, 3-(6-(3-(4-(2-((R)-2-(2-hydroxyphenyl)-5,6,6a,7,9,10-hexahydro-8H-pyrazino [1′,2′:4,5]pyrazino[2,3-c]pyridazin-8-yl)pyrimidin-5-yl)piperidin-1-yl)propyl)-9H-pyrido [2,3-b]indol-9-yl)piperidine-2,6-dione] |  |
| < 100 | > 75 | < 100 | > 75 | O=C1CCC(N2Cc3ccc(N4CCN(CCN5CCC(N6CCN7c8cc(-c9ccccc9O)nnc8NC[C@H]7C6)CC5)CC4)cc3C2=O)C(=O)N1 (stereo partly drawn) [Example 17, 3-(6-(4-(2-(4-((S)-2-(2-hydroxyphenyl)-5,6,6a,7,9,10-hexahydro-8H-pyrazino [1′,2′:4,5]pyrazino[2,3-c]pyridazin-8-yl)piperidin-1-yl)ethyl)piperazin-1-yl)-1-oxoisoindolin-2-yl)piperidine-2,6-dione] |  |
| < 100 | > 75 | < 100 | > 75 | O=C1CCC(n2c3ccc(CCCN4CCC(N5CC(N6CCN7c8cc(-c9ccccc9O)nnc8NC[C@H]7C6)C5)CC4)cc3c3cccnc32)C(=O)N1 (stereo partly drawn) [Example 21, 3-(6-(3-(4-(3-((S)-2-(2-hydroxyphenyl)-5,6,6a,7,9,10-hexahydro-8H-pyrazino [1′,2′:4,5]pyrazino[2,3-c]pyridazin-8-yl)azetidin-1-yl)piperidin-1-yl)propyl)-9H-pyrido[2,3-b]indol-9-yl)piperidine-2,6-dione] |  |
